Assay results: article PMC7413254 (Nature Communications, 2020)
Several values for one entry are separate records, joined by “and”; a condition that tells them apart may be missing. Equal entries are not always repeated.

Tests used:
PfCRT^3D7 [1] = biological target: T1, PfCRT^3D7 (Plasmodium falciparum, UniProt Q8IBZ9); test: cell-based; format: cell-based
Description: (§1) The orientation of PfCRT in the parasite’s DV membrane, and also in the oocyte plasma membrane, is such that its N- and C-termini extend into the cytosol. The oocytes were suspended in a reaction buffer adjusted to pH 5.5 to mimic the pH of the DV lumen[1],[2]. In this scenario, the transport of a substrate via PfCRT from the acidic extracellular solution into the oocyte cytosol[15] is analogous to the parasite’s PfCRT-mediated efflux of a substrate from the acidic DV and into the cytosol. Unless specified otherwise, this is the direction in which substrate transport was measured in the oocyte assays.
(§2) Unless specified otherwise, the transport assays were conducted over 1.5 h at 27.5 °C and the reaction buffer was ND96 (96 mM NaCl, 2 mM KCl, 1 mM MgCl2, 1.8 mM CaCl2, 10 mM MES and 10 mM Tris-base) at pH 5.5.
(§3) Ten oocytes were washed twice with the relevant ND96 buffer. […] The assay was terminated by removing the reaction buffer and washing the oocytes with ice-cold ND96 buffer. The oocytes were lysed in 10% (w/v) sodium dodecyl sulfate (SDS) and the radioactivity accumulated within each oocyte was measured with a MicroBeta^2 microplate liquid scintillation analyser (PerkinElmer).
(§4) At least four independent experiments were performed (on different days and using oocytes from different frogs), and within each experiment measurements were made from ten oocytes per treatment.

non-expressing oocytes [2] = test: cells; format: cell-based, Xenopus laevis
Description: as §1, §2, §3, §4

non-expressing oocytes [3] = format: cell-based, Xenopus laevis
Protocol: as §2
The intracellular concentrations were calculated using previous estimates of the volume of stage V–VI oocytes (~400 nL[60]). […] The oocytes were injected with VF-6 suspended in 25 nL ND96 buffer adjusted to pH 5.0, 5.5, 6.0 or 7.0, which corresponded to the injection of 2.5–250 fmol of H^+. The Na^+-dependence of the trans-stimulatory effect of VF-6 was assessed by injecting the oocytes with VF-6 suspended in ND96 buffer (pH 5.5) or a Na^+-free version of this buffer (the Na^+ was replaced with choline).
as §4

PfNT1 = biological target: T2, PfNT1 (Plasmodium falciparum, UniProt Q8IDM6); test: cell-based; format: cell-based
T2 construct: expressed in transfected cells; host or cells: Xenopus laevis oocytes (stage V-VI), cRNA-injected
Summary of the method: (§5)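 Transport measured in Xenopus oocytes expressing the transporters, 1.5 h at 27.5 °C in ND96 pH 5.5 unless noted. For trans-stimulation, VF-6 injected in 25 nL ND96 at pH 5.0–7.0 or Na^+-free (choline) buffer; intracellular levels based on ~400 nL oocyte volume. Ten oocytes per treatment, ≥4 experiments.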

PfCRT^3D7 [4] = biological target: T1, PfCRT^3D7; test: cell-based; format: cell-based; remark: listed apart in the source
Summary of the method: as §5

T2 sequence (Q8IDM6 whole entry): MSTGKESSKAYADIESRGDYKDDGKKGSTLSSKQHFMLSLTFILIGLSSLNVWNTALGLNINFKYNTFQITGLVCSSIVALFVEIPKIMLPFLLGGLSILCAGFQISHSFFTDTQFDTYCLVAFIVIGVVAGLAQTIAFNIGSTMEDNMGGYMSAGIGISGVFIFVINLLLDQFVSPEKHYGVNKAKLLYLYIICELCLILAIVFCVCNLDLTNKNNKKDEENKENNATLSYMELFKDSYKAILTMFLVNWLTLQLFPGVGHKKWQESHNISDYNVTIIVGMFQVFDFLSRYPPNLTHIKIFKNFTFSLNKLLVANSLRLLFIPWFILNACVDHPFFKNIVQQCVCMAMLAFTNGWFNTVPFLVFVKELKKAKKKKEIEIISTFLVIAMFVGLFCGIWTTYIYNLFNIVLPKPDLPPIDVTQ
T1 sequence (Q8IBZ9 59-398): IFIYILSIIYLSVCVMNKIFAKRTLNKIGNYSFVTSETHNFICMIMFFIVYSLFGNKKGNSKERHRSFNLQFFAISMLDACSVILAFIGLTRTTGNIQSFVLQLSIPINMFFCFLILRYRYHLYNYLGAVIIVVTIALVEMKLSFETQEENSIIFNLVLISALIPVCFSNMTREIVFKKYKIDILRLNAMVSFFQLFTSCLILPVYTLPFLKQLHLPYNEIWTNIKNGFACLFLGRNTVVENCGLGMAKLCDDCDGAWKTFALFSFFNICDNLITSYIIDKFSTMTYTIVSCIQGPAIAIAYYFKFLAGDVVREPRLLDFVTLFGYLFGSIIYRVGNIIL

Row | SMILES | Cis-inhibition data: total [3H]CQ transport, normalised to the oocyte type control (PfCRT^3D7 [1]) | Total [3H]CQ transport, cis-inhibition by solute (PfCRT^3D7 [1]) | Cis-inhibition data: total [3H]CQ transport, normalised to the oocyte type control (non-expressing oocytes [2]) | Total [3H]CQ transport, cis-inhibition by solute (non-expressing oocytes [2]) | Total [3H]CQ transport, trans-stimulation by injected solute (non-expressing oocytes [3]) | Trans-stimulation data: total [3H]CQ transport, normalised to the oocyte type control (non-expressing oocytes [3]) | Total [3H]CQ transport, trans-stimulation by injected solute (PfNT1) | Trans-stimulation data: total [3H]CQ transport, normalised to the oocyte type control (PfNT1) | PfCRT-mediated [3H]CQ transport, trans-stimulation by injected solute, PfCRT3D7 (PfCRT^3D7 [4]) | Total [3H]CQ transport, trans-stimulation by injected solute (PfCRT^3D7 [4]) | Trans-stimulation data: PfCRT-mediated [3H]CQ transport (PfCRT^3D7 [4]) | Trans-stimulation data: total [3H]CQ transport, normalised to the oocyte type control (PfCRT^3D7 [4])
1 | O=CO [Formate] | 101 ± 7.3 and 99 ± 3.8 and 100 ± 4.4 | 2.4 ± 0.06 and 3.5 ± 0.07 and 3.3 ± 0.07 | 100 ± 3.5 and 100 ± 1.8 | 2.8 ± 0.03 and 3.2 ± 0.08 and 2.5 ± 0.04 | 2.5 ± 0.09 and 3.2 ± 0.08 | 101 ± 3.9 and 99 ± 3.5 | 3.1 ± 0.08 and 2.3 ± 0.06 | 101 ± 3.6 and 100 ± 24 | 0.8 ± 0.01 and 0.8 ± 0.03 | 3.8 ± 0.01 and 3.8 ± 0.03 | 99 ± 3.7 and 99 ± 3.8 | 101 ± 2.9 and 101 ± 2.8
2 | N[C@@H](CCC(=O)N[C@@H](CS)C(=O)NCC(=O)O)C(=O)O [Reduced glutathione (GSH)] | 100 ± 5.5 and 101 ± 3.7 and 100 ± 4.7 | 2.7 ± 0.06 and 3.1 ± 0.08 and 3.3 ± 0.07 | 99 ± 4.6 and 99 ± 4.5 and 101 ± 2.2 | 2.8 ± 0.2 and 2.6 ± 0.08 and 3.2 ± 0.08 | 2.7 ± 0.05 and 2.9 ± 0.05 | 99 ± 4.9 and 101 ± 4.7 | 3.8 ± 0.07 and 2.7 ± 0.06 | 98 ± 3.8 and 99 ± 4.4 | 0.2 ± 0.03 and 0.2 ± 0.01 | 3.2 ± 0.03 | 96 ± 3.7 and 98 ± 3.9 | 98 ± 4.3 and 100 ± 3.8
